From ChEMBL document CHEMBL4043122, “Discovery of spiro[indole-3,2'-pyrrolidin]-2(1H)-one based inhibitors targeting Brr2, a core component of the U5 snRNP” (Bioorg Med Chem, 2017)
Converted amounts (≈) assume the structure as drawn. The source made the active and inactive calls. No cut-off for these calls is given here.

Experiments:
[1] = target: Eukaryotic initiation factor 4A-I (Homo sapiens, UniProt P60842); assay: Inhibition of elF4G-induced full length recombinant human N-terminal His6-SUMO-tagged eIF4A1 RNA dependent ATPase activity expressed in Escherichia coli BL21(DE3) using single stranded poly(U) RNA as substrate after 30 mins by ADP-Glo luminescence assay
Sequence of Eukaryotic initiation factor 4A-I (P60842 whole entry): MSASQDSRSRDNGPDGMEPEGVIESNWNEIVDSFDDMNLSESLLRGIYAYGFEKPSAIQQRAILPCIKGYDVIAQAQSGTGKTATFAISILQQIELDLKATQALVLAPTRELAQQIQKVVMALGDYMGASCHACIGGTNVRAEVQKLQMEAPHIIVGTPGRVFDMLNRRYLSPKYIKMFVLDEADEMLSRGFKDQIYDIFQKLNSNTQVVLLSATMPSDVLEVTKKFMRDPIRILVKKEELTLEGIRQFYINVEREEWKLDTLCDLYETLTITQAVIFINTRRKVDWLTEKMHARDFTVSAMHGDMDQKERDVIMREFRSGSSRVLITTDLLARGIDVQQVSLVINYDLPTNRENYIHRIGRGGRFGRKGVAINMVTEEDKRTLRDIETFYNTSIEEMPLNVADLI

[2] = Permeability of the compound at pH 7.4 by PAMPA; format: physicochemical; details: read-out: permeability
[3] = target: Eukaryotic initiation factor 4A-III (Homo sapiens, UniProt P38919); assay: Inhibition of MLN51-induced full length recombinant human N-terminal His6/SUMO-tagged eIF4A3 RNA dependent ATPase activity expressed in Escherichia coli BL21(DE3) using single stranded poly(U) RNA as substrate after 30 mins by ADP-Glo luminescence assay
Sequence of Eukaryotic initiation factor 4A-III (P38919 whole entry): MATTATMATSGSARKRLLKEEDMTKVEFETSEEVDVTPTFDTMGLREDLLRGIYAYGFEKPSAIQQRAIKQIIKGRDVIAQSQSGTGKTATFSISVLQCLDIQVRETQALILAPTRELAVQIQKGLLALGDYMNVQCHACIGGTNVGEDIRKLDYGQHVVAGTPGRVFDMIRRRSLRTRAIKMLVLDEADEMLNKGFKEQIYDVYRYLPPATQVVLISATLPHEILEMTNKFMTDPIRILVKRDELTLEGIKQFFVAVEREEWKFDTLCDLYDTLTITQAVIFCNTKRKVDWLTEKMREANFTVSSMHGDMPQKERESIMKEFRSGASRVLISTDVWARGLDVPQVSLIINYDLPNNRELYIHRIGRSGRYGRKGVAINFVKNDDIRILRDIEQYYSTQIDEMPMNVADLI

[4] = target: T1, U5 small nuclear ribonucleoprotein 200 kDa helicase (Homo sapiens, UniProt O75643); assay: Inhibition of full length recombinant human N-terminal His-tagged BRR2 RNA dependent ATPase activity expressed in baculovirus infected Sf9 cells using single stranded poly(U) RNA as substrate after 30 mins by ADP-Glo luminescence assay
T1 sequence (O75643 whole entry): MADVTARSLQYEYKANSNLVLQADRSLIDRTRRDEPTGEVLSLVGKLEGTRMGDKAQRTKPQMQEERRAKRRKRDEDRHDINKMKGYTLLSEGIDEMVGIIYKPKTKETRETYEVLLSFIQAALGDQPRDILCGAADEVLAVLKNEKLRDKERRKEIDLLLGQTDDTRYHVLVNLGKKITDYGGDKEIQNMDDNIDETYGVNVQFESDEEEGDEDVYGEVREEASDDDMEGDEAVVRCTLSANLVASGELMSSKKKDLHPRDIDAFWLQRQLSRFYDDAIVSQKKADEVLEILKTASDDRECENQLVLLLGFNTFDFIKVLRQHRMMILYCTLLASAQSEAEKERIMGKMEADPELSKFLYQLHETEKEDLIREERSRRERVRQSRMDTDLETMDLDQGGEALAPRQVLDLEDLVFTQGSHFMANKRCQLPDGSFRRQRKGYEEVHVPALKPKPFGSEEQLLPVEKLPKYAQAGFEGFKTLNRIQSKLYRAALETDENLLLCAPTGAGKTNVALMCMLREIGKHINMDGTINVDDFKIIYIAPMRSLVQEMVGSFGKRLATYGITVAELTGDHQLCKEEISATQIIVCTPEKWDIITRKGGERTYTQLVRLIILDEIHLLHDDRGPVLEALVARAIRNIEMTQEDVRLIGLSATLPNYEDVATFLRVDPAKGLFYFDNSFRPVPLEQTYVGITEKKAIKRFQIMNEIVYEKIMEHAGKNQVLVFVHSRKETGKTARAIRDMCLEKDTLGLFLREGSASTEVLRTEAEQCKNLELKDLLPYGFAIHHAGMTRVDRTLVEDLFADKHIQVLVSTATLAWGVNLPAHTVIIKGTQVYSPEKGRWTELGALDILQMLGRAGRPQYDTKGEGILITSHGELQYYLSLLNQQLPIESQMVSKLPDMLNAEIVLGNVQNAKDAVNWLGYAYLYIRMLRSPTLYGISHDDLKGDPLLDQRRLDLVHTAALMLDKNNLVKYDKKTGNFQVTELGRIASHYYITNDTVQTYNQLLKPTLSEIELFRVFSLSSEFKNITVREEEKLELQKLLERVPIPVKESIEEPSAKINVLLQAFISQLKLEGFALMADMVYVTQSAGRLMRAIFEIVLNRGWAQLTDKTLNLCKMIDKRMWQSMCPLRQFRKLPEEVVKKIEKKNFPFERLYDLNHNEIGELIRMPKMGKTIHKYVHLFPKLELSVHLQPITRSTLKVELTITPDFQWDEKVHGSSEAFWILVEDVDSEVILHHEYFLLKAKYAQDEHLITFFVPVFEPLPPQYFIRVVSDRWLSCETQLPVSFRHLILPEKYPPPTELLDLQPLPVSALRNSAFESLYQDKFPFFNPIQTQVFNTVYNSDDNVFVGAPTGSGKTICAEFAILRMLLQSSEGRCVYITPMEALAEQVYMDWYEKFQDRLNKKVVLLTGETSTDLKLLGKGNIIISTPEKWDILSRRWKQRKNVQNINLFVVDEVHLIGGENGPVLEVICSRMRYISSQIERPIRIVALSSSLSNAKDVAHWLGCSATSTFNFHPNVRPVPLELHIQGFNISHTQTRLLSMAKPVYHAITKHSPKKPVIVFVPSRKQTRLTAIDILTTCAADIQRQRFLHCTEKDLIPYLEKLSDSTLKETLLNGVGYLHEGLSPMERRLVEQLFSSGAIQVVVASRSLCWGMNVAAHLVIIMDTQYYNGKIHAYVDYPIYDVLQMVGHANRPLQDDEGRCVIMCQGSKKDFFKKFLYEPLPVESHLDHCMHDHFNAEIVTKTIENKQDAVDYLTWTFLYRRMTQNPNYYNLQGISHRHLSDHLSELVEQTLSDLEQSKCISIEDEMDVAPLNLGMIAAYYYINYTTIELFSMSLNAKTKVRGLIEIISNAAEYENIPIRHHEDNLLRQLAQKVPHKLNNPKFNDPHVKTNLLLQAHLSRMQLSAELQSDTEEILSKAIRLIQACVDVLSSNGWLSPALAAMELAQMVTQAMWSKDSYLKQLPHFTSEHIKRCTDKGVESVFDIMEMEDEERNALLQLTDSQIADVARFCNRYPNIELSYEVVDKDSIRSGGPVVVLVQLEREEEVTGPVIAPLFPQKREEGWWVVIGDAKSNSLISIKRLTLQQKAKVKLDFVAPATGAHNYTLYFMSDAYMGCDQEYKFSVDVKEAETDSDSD

[5] = target: T1, U5 small nuclear ribonucleoprotein 200 kDa helicase; assay: Inhibition of full length recombinant human N-terminal His-tagged BRR2 helicase activity expressed in baculovirus infected Sf9 cells using 5'-[FITC]-UUCCCCUGCAUAAC-3'/5'-GUUAUGCAGGGGAACCAACGCAUAUCAGUGAGGAUU-3' RNA as substrate at 100 uM after 10 mins in presence of ATP by PAGE analysis
[6] = Solubility of the compound at pH 6.8; format: physicochemical; details: buffer
[7] = target: T2, ATP-dependent RNA helicase DHX29 (Homo sapiens, UniProt Q7Z478); assay: Inhibition of full length recombinant human N-terminal His-FLAG-tagged DHX29 RNA dependent ATPase activity expressed in baculovirus infected Sf9 insect cells using single stranded poly(U) RNA as substrate after 30 mins by ADP-Glo luminescence assay
T2 sequence (Q7Z478 whole entry): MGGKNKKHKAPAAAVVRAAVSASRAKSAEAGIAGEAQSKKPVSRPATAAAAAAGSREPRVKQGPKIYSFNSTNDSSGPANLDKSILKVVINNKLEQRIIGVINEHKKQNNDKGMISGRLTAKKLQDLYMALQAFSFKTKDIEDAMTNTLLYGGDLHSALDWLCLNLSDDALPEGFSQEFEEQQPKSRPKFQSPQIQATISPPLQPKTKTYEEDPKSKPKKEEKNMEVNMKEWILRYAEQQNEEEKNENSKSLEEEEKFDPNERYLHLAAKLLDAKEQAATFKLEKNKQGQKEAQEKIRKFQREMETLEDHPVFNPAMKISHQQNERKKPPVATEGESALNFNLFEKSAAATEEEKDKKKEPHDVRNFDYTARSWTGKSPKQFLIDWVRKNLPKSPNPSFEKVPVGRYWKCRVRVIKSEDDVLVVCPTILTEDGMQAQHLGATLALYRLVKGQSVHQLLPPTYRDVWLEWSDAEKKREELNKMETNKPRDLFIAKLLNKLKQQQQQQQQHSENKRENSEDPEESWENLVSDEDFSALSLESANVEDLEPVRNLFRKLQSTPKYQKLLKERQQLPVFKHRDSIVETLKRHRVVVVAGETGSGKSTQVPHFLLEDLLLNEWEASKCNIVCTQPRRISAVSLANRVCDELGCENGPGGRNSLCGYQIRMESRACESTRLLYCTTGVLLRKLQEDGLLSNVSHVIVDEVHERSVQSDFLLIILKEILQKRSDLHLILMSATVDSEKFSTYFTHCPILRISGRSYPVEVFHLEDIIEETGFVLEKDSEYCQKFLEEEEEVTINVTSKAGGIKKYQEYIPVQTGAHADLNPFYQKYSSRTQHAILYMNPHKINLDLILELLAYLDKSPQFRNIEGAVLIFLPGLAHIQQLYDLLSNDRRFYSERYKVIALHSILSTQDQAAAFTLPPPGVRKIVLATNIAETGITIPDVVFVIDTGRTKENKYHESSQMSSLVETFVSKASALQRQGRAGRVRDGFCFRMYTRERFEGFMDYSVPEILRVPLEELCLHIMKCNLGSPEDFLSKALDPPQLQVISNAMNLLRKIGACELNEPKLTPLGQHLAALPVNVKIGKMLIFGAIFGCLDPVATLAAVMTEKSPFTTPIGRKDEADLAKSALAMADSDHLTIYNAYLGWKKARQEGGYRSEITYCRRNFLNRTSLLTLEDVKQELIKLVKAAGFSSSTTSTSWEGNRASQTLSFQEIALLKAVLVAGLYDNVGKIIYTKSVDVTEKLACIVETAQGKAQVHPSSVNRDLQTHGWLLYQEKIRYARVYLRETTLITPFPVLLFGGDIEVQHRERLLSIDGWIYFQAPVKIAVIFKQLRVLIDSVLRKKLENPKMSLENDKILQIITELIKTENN

[8] = target: T1, U5 small nuclear ribonucleoprotein 200 kDa helicase; assay: Inhibition of full length recombinant human N-terminal His-tagged BRR2 helicase activity expressed in baculovirus infected Sf9 cells using 5'-[FITC]-UUCCCCUGCAUAAC-3'/5'-GUUAUGCAGGGGAACCAACGCAUAUCAGUGAGGAUU-3' RNA as substrate after 10 mins in presence of ATP by PAGE analysis

Compound | IC50 [1] [µM] | Papp [2] [×10⁻⁶ cm/s] | IC50 [3] [µM] | IC50 [4] [µM] | inhibition [5] | solubility [6] [µg/mL] | IC50 [7] [µM] | IC50 [8] [µM]
CC(C)C[C@@H]1C[C@H](C)[C@@]2(C(=O)Nc3ccc(F)cc32)N1C(=O)c1cn(Cc2ccccc2)cn1 | > 100 | 19.5 | > 100 | > 100 | inactive | 46 (≈ 99.9 µM) |  | 
CC(C)C[C@H]1C[C@@H](C)[C@]2(C(=O)Nc3ccc(F)cc32)N1C(=O)c1cn(C)cn1 (racemic) |  |  |  | 0.042 |  |  |  | 
CC(C)C[C@@H]1C[C@H](C)[C@@]2(C(=O)Nc3ccc(F)cc32)N1C(=O)c1cn(C)cn1 | > 100 | 16.8 | > 100 | 84 | inactive | > 110 |  | 

These reach a lower IC50 [4]. Values come first.

IC50 [1] [µM] | Papp [2] [×10⁻⁶ cm/s] | IC50 [3] [µM] | IC50 [4] [µM] | inhibition [5] | solubility [6] [µg/mL] | IC50 [7] [µM] | IC50 [8] [µM] | Compound
> 100 | 18.2 | > 100 | 0.011 |  | 45 (≈ 97.7 µM) | > 100 | 0.35 | CC(C)C[C@H]1C[C@@H](C)[C@]2(C(=O)Nc3ccc(F)cc32)N1C(=O)c1cn(Cc2ccccc2)cn1
> 100 | 18.3 | > 100 | 0.021 |  | > 99 | > 100 | 0.48 | CC(C)C[C@H]1C[C@@H](C)[C@]2(C(=O)Nc3ccc(F)cc32)N1C(=O)c1cn(C)cn1
 |  |  | 0.024 |  |  |  |  | CC(C)C[C@H]1C[C@@H](C)[C@]2(C(=O)Nc3ccc(F)cc32)N1C(=O)c1cn(Cc2ccccc2)cn1 (racemic)
